Measurements: US20140080758A1, “TREATMENT OF KIDNEY DISORDERS WITH VIP FRAGMENTS” (Vectus […] Limited, priority 2008, published 2014)

Tested on: spontaneously hypertensive rats (SHR) on 2.2% salt diet
Assay: Renal interstitial fibrosis after 4-week peptide infusion in SHR on 2.2% salt diet
Assay type: in vivo, rat
Conditions: infusion 5 pmol/kg/min intravenously by osmotic minipump for 4 weeks, versus vehicle control, fibrosis as percent surface area
Excerpt: For kidney fibrosis experiments, two types of rats were used, spontaneously hypertensive rats (SHR) and normotensive control Wistar-Kyoto rats (WKY) (animals were obtained from Australian Animal Resources, Perth, Western Australia, Australia)
i) Male spontaneously hypertensive (SHR) rats on 2.2% salt diet ii) Male Wistar Kyoto (WKY) rats on 4.4% salt diets
Commencing at 12 weeks of age, the rats were acclimatized to tail cuff blood pressure measurements and handling for 2 weeks. They then underwent operative insertion of an osmotic minipump (Alzet—Manufacturer: Durect Corporation, Cupertino, Calif., USA; Supplier: Bioscientific Gymea, NSW, Australia) which was designed to deliver vehicle alone (Hartman's solution, Baxter Health Care Corporation, USA)—(Controls) or VIP, VIP fragment or analogue at a dose of 4 pmol/kg/min or 5 pmol/kg/min intravenously.
The infusion was continued for 4 weeks, during which the rats were weighed and their blood pressures measured twice weekly. At the end of the 4 week infusion period, the rats were anaesthetized and their kidneys harvested. […]
For quantitation of interstitial fibrosis, twenty microscopic fields from each kidney were digitized and the amount of fibrosis in each determined as percent surface area using Image-Pro Plus V5.0 software (Cybernetics). The mean value for each rat and subsequently for each infusion group was then determined.

His-Ser-Asp-Ala-Val-Phe-Thr-Asp-Asn-Tyr-Thr-Arg-Leu-Arg-Lys-Gln-Met-Ala-Val-Lys-Lys-Tyr-Leu-Asn-Ser-Ile-Leu-Asn (HSDAVFTDNYTRLRKQMAVKKYLNSILN; listed as Homo sapiens) [VIP]
renal interstitial fibrosis: reductions in renal interstitial fibrosis
